Assay results taken from ChEMBL document CHEMBL1201862, “PubChem BioAssay data set” (2004).
The source made the active and inactive calls.

Legend:
Kallikrein-7 = Kallikrein-7 (Homo sapiens, UniProt P49862); test: Fluorescence Intensity-based biochemical primary high throughput dose response assay to identify activators of kallikrein-7 (K7) zymogen.
Mucolipin-3 = target: T1, Mucolipin-3 (Homo sapiens, UniProt Q8TDD5); test: Dose response cell-based high-throughput screening assay for agonists of the transient receptor potential channel ML3 (TRPML3). [Related pubchem assays: 1526, 1424, 1448 ]; type: functional
T1 sequence (Q8TDD5 whole entry): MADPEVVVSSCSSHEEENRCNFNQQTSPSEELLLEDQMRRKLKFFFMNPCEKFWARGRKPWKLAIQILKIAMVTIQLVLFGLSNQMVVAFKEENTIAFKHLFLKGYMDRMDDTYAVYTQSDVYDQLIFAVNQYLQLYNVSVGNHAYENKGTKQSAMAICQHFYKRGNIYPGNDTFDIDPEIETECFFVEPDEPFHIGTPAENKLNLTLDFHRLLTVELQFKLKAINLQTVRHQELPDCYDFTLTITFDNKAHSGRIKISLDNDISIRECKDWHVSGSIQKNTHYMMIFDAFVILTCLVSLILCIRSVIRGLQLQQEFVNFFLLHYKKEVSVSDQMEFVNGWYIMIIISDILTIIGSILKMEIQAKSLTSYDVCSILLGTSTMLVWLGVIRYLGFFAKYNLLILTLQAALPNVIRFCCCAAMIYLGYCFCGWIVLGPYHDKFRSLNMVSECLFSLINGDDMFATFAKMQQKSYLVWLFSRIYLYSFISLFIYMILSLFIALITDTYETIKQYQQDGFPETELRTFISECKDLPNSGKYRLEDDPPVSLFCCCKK

Ion channel NompC = Ion channel NompC (Danio rerio, UniProt Q7T1G6); test: Fluorescence counterscreen assay for TRPML3 agonists: dose response cell-based high-throughput screening assay to identify agonists of the transient receptor potential channel N1 (TRPN1). [Related pubchem assays: 1526, 1424, 1448 ]; type: functional
HEK293 [1] = test: NOD1 signaling inhibitors, primary screen, cell-based, luminescence, uHTS (AID 1578); type: functional; settings: Homo sapiens
HEK293 [2] = test: cells; type: functional, cell-based; settings: Homo sapiens
HEK293 [3] = test: NOD2 signaling inhibitors in MDP-stimulated cells, cell-based, uHTS, luminescence (AID 2001); type: functional; settings: Homo sapiens
HEK293 [4] = test: cells; type: functional, cell-based; settings: Homo sapiens; remark: listed apart in the source
Aminopeptidase N = target: T2, Aminopeptidase N (Plasmodium falciparum FcB1/Columbia, UniProt O96935); test: P. falciparum M1AAP inhibitors, biochemical, fluorogenic H-Leu-NHMec substrate, 1536-well (AID 1445); design: species or system Plasmodium falciparum 3D7, 3D7
T2 sequence (O96935 whole entry): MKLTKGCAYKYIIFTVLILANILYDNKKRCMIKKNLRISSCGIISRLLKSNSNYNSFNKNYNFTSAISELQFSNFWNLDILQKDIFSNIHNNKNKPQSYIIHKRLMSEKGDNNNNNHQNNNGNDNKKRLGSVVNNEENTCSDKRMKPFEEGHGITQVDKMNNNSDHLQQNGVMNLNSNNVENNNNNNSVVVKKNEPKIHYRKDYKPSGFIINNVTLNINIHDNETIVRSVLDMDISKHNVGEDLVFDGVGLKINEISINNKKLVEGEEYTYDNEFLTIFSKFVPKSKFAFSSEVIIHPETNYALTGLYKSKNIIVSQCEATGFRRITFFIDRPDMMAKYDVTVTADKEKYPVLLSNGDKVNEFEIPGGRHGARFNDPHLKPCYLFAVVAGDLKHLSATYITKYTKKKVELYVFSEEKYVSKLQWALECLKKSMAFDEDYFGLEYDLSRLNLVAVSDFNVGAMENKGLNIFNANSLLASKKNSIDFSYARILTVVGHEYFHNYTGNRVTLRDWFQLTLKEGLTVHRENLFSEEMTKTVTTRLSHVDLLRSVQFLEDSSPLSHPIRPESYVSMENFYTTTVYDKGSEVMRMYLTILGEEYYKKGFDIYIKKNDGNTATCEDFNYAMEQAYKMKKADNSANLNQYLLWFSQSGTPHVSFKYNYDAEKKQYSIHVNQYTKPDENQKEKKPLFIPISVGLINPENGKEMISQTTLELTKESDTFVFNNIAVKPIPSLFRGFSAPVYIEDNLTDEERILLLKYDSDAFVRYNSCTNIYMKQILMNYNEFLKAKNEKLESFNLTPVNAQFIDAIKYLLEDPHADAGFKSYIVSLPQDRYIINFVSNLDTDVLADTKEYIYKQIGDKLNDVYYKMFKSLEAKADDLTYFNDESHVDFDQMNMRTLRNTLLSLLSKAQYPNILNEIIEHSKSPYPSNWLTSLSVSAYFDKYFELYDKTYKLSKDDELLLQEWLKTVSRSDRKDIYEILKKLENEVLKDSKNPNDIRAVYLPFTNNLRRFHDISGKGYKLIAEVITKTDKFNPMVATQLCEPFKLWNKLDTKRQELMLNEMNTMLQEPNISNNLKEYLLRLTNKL

[5] = A cytotoxicity screen of small molecule inhibitors of the PhoP region in Salmonella typhi identified in the primary screen. [Related pubchem assays: 1850, 1864, 1985 ]; type: functional
[6] = target: T3, Probable nicotinate-nucleotide adenylyltransferase (Staphylococcus aureus (strain N315), UniProt P65502); type: functional, Staphylococcus aureus subsp. aureus N315; settings: read-out: IC50_Mean;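 for IC50 Mean: confirmatory dose-response retesting of NadD inhibitor hits first found in an ultra-high-throughput screen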
[7] = target: T3, Probable nicotinate-nucleotide adenylyltransferase; type: functional, Staphylococcus aureus subsp. aureus N315
Beta-galactosidase = Beta-galactosidase (Escherichia coli, UniProt Q8VNN2); test: beta-galactosidase enzyme inhibitors and activators, dose response, artefact control for CCR6 antagonist project, biochemical, E. coli enzyme, set 3 (AID 504712); type: functional
[8] = P. falciparum ATP4 D1247Y mutant growth inhibitors, dose response, NITD609-resistant line, SYBR Green, dry powder (AID 1159571); type: functional, cell-based;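 note: parasites synchronized at ring stage by sorbitol before testing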
[9] = P. falciparum 3D7-ScDHODH growth inhibitors, dose response, SYBR Green, dry powder samples (AID 1159570); type: functional, cell-based;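 note: parasite growth measured after 72 hours of compound exposure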
[10] = P. falciparum Dd2 growth inhibitors, dose response, SYBR Green, dry powder samples (AID 1159566); type: functional, cell-based;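 note: potency for growth inhibition with lower SYBR green DNA signal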
[11] = P. falciparum Dd2 growth inhibitors, dose response, SYBR Green, cherry-picked samples (AID 1159567); type: functional, cell-based
[12] = intracellular Trypanosoma cruzi inhibitors in host cells – cell-based, plate reader, cherry-pick samples, set 3, dose response (AID 651818); type: functional;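 note: compounds incubated with infected cells for about four days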
[13] = HepG2 cell cytotoxicity, dose response, cytotoxicity control, plate reader, dry powder samples (AID 1159569); type: functional, cell-based;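 note: inhibitor potency with signal falling toward the positive control level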
[14] = target: DNA dC->dU-editing enzyme APOBEC-3G (Homo sapiens, UniProt Q9HC16); type: functional;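 note: Dose-response counterscreen measuring inhibition of APOBEC3G DNA deaminase activity, run while confirming APOBEC3A inhibitors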
[15] = target: DNA dC->dU-editing enzyme APOBEC-3A (Homo sapiens, UniProt P31941); test: Dose Response confirmation of small molecule APOBEC3A DNA Deaminase Inhibitors via a fluorescence-based single-stranded DNA deaminase assay. [Related pubchem assays (depositor defined):AID493011, AID493024]; type: functional
Fatty acid synthase [16] = target: T4, Fatty acid synthase (Homo sapiens, UniProt P49327); test: FAS thioesterase domain inhibitors, dose response, biochemical, endpoint fluorescence intensity, uHTS hits (AID 624327); type: functional;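 note: fluorescence from hydrolysis of an O-methyl fluorescein acyl ester substrate by the enzyme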
[17] = target: T5, Carboxy-terminal domain RNA polymerase II polypeptide A small phosphatase 1 (Homo sapiens, UniProt Q9GZU7); test: inhibitors of CTDSP1, concentration-response testing, biochemical assay, absorbance-based, actives from ultra-high-throughput screening (AID 540297); type: functional
T5 sequence (Q9GZU7 whole entry): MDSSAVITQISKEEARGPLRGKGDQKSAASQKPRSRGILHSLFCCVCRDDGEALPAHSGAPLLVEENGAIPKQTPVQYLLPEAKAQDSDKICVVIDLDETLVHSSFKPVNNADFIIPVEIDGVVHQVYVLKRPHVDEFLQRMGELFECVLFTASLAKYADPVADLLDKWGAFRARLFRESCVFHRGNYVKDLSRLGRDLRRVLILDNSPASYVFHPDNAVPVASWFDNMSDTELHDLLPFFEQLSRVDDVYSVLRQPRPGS

Fatty acid synthase [18] = target: T4, Fatty acid synthase; test: FAS thioesterase domain inhibitors, dose response, biochemical, kinetic fluorescence intensity (AID 624326); type: functional;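 note: rate of fluorescence rise from hydrolysis of a fluorogenic O-methyl fluorescein ester substrate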
[19] = target: T6, DNA repair and recombination protein RAD54-like (Homo sapiens, UniProt Q92698); test: inhibitors of human RAD54 branch migration, confirmation, biochemical, fluorescence, cherry-picked samples, dose series (AID 651657); type: functional
T6 sequence (Q92698 whole entry): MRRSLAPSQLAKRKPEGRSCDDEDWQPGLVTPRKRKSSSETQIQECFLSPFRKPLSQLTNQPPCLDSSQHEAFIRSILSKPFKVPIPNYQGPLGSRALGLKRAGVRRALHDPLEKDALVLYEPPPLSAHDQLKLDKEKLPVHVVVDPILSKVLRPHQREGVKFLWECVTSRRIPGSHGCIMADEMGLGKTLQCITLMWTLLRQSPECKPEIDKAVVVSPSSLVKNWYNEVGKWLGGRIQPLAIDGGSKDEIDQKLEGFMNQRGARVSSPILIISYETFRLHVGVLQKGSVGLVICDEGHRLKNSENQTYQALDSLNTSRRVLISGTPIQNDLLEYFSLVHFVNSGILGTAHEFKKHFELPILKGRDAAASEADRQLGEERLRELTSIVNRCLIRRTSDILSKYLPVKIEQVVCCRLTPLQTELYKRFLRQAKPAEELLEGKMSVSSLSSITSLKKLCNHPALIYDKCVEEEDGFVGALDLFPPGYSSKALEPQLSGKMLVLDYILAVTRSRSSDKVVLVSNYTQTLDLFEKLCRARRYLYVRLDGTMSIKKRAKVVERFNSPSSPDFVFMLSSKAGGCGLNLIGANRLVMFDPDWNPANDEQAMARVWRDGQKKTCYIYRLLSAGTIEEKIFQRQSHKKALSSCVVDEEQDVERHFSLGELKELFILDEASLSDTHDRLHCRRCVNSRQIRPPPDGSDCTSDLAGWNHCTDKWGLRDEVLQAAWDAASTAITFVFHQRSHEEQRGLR

cells [20] = type: functional, cell-based
cells [21] = type: functional, cell-based; remark: listed apart in the source

Ion channel NompC, sequence (Q7T1G6 whole entry): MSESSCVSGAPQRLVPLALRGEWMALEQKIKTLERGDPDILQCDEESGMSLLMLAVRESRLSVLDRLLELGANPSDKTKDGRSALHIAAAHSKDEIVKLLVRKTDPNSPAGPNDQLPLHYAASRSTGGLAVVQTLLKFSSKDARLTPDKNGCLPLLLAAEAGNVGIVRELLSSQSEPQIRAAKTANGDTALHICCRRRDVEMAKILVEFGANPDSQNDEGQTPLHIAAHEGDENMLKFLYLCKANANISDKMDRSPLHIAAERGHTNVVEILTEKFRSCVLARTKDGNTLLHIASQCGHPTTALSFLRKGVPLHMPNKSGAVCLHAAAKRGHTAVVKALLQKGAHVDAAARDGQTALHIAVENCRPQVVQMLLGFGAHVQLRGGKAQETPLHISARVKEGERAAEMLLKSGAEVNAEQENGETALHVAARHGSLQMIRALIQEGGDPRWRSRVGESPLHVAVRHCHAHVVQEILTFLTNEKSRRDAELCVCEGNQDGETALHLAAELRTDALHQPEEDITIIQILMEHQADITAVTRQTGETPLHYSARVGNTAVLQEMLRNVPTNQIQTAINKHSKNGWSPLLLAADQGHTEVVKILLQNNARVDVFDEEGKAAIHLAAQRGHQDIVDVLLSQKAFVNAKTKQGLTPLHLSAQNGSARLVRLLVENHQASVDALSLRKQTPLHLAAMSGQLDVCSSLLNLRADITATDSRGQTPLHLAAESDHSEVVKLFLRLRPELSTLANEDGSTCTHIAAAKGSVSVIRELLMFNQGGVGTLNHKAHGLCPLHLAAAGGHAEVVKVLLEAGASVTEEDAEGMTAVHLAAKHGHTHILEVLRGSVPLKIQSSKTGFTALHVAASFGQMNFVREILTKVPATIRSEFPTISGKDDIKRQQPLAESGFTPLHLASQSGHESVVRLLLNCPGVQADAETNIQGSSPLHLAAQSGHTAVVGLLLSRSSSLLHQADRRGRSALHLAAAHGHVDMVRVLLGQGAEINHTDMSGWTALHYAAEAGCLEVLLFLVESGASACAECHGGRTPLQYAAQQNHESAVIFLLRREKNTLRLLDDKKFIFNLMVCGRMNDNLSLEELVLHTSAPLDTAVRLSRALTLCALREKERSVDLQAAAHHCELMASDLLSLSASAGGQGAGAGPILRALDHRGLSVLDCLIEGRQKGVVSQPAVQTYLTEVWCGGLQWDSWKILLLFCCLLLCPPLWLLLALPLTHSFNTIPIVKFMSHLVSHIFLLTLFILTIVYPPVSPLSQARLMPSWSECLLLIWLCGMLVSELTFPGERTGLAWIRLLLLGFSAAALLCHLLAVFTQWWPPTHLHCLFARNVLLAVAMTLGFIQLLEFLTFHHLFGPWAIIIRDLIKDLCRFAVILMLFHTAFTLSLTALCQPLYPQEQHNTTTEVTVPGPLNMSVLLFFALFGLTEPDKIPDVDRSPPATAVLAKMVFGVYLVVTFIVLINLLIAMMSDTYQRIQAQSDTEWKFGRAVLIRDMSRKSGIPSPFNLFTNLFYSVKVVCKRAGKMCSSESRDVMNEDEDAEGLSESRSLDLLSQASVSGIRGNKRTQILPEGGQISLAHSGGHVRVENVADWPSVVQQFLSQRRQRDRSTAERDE
T4 sequence (P49327 whole entry, the tested form may be a part): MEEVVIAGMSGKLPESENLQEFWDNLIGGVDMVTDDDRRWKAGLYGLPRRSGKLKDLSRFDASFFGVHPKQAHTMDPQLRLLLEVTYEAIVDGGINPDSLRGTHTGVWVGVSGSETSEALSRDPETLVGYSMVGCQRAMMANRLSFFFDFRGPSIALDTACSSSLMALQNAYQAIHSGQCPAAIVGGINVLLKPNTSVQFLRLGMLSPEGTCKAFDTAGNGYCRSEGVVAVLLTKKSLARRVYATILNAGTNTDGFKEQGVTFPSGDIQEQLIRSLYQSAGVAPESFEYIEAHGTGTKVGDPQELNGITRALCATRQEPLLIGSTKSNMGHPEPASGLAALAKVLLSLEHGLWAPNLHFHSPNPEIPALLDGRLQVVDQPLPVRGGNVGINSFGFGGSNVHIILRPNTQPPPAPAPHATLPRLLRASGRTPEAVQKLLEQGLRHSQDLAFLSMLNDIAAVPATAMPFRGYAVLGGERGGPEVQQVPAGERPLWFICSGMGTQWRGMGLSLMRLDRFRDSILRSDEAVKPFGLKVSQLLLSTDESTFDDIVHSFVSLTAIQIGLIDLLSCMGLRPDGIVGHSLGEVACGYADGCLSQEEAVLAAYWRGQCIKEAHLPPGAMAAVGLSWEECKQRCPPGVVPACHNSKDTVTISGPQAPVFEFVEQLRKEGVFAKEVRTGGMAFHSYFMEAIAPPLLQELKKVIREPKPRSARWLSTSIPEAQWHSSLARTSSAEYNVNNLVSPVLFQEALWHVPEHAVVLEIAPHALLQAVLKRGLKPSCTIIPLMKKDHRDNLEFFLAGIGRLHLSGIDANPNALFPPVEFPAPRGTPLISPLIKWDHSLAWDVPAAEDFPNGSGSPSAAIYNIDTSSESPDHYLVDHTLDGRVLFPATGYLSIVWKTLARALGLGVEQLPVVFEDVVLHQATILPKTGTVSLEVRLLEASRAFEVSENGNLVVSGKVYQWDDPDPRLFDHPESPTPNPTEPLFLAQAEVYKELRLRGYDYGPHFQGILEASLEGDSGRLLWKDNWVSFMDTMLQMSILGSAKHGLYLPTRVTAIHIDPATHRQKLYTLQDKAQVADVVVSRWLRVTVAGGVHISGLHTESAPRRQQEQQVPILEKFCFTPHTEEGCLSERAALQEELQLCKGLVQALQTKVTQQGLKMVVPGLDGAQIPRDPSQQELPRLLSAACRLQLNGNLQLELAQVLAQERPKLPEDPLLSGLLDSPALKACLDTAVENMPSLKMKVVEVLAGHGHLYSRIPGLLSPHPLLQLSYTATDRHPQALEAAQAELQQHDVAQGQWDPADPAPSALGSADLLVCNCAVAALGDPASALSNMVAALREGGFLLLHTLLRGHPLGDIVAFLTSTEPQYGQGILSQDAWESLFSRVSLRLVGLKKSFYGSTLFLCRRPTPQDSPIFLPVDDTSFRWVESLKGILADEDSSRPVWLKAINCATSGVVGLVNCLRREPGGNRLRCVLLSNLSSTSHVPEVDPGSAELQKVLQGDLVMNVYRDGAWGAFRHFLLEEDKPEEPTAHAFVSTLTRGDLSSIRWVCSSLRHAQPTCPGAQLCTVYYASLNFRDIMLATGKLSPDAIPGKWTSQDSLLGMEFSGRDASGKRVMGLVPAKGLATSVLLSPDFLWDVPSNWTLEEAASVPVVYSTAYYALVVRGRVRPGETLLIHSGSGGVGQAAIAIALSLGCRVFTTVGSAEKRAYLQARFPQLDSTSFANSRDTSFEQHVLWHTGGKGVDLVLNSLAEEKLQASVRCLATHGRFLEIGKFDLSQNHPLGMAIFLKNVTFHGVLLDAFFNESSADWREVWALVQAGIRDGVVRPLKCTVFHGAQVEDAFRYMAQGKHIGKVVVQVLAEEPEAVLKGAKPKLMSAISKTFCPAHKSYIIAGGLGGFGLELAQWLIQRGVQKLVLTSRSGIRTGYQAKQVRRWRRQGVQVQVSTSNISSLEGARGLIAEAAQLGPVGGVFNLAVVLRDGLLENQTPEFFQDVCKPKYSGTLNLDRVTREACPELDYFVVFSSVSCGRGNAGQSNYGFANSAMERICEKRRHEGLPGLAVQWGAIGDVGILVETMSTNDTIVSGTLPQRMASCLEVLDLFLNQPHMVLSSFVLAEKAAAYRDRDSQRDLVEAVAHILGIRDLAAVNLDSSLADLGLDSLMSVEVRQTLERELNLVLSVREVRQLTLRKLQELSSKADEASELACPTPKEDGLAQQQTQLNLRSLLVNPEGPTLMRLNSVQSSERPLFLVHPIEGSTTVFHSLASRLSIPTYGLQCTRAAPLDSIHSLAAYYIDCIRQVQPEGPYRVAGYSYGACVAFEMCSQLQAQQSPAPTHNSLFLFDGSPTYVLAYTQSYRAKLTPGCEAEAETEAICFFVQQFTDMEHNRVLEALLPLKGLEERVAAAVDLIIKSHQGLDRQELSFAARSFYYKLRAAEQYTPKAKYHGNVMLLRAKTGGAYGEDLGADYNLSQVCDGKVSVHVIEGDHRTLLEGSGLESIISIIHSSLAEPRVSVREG
T3 sequence (P65502 whole entry): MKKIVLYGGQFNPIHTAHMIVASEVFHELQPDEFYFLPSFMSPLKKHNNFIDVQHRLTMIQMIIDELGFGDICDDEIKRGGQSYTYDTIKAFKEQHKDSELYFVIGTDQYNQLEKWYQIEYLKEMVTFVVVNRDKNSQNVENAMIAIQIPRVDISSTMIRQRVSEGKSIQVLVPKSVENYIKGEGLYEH
Kallikrein-7, sequence (P49862 whole entry): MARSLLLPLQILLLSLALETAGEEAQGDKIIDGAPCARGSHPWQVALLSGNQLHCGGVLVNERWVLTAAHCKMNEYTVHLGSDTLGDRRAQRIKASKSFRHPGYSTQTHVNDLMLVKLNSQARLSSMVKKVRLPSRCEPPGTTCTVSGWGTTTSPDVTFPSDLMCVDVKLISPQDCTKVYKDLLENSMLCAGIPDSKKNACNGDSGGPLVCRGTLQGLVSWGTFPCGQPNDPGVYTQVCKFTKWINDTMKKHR
DNA dC->dU-editing enzyme APOBEC-3G, sequence (Q9HC16 whole entry): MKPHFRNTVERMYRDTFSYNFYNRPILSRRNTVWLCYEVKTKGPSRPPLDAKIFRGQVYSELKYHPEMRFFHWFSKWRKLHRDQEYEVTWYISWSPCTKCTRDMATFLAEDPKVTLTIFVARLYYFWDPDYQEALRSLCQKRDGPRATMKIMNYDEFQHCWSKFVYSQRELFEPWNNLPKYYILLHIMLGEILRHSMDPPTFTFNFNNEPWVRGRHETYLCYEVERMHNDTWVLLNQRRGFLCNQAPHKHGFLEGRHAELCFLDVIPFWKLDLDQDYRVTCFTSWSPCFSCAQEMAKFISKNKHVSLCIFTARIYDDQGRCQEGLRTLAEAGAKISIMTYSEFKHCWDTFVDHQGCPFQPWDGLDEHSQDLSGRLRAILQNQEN

Compound: CC(=O)Nc1ccc(C2Nc3ccccc3C(=O)N2C2CCCCC2)cc1 (stereo not given)
- EC50 (Kallikrein-7): > 69.5 µM (inactive)

Compound: Cc1cccc(CC2CC(=O)N(C3CCCCC3)C2=O)c1 (stereo not given)
- EC50 (Mucolipin-3): 3.41 µM (active)
- EC50 (Ion channel NompC): > 29.9 µM (not active)

Compound: CCOc1ccc(NC(=O)c2ccccc2NS(=O)(=O)c2ccc(F)cc2)c([N+](=O)[O-])c1
- EC50 (Mucolipin-3): 5.29 µM (active)
- EC50 (HEK293 [1]): 4.21 µM (active)
- IC50 (HEK293 [2]): > 20 µM (inactive)
- IC50 (HEK293 [3]): 11.8 µM (inactive)
- IC50 (HEK293 [4]): 19 µM (active)
- EC50 (Ion channel NompC): > 29.9 µM (not active)

Compound: CC1CCCCC1NC(=O)CSc1nnc(-c2ccccc2)n1N (stereo not given)
- IC50 (Aminopeptidase N): 46.8 µM (active)

Compound: Cc1cccn2c(=O)c3cc(C(=O)NC4CCS(=O)(=O)C4)sc3nc12 (stereo not given)
- EC50 (Kallikrein-7): 25.1 µM (inactive)

Compound: CC1CCCC(C)N1C(=O)CN1CCN(c2nc(-c3ccc(F)cc3)cs2)CC1 (stereo not given)
- EC50 (Mucolipin-3): 27.4 µM (not active)
- EC50 (Ion channel NompC): > 29.9 µM (not active)

Compound: COc1ccc(C2=NN3C(C2)c2ccccc2OC3c2cccs2)cc1 (stereo not given)
- EC50 [5]: > 50 µM (active)

Compound: C[N+]12CN3CN(CN(C3)C1)C2
- EC50 [5]: > 50 µM (active)

Compound: Cc1c([N+](=O)[O-])cc(N2C(=O)C=CC2=O)cc1[N+](=O)[O-]
- IC50 [6]: 6.33 µM (active)
- IC50 [7]: 3.77 µM (active)
- IC50 (Beta-galactosidase): > 66.6 µM (inactive)

Compound: C[C@@H]1CN([C@H](C)CO)C(=O)c2cccc(NC(=O)CCCCCC(=O)Nc3ccccc3N)c2O[C@@H]1CN(C)S(=O)(=O)c1ccccc1
- AC50 [8]: 0.549 µM (active)
- AC50 [9]: 0.507 µM (active)
- AC50 [10]: 0.573 µM (active)
- AC50 [11]: 0.989 µM (active)
- AC50 [12]: 3.26 µM (active)
- AC50 [13]: 70.7 µM (active)

Compound: CN(C)/C=N/c1ncc(C(=O)c2ccc(Cl)cc2)s1
- EC50 [5]: > 50 µM (active)

Compound: COc1ccc(/C=N/NC(=O)C(C)Sc2ccccn2)cc1[N+](=O)[O-] (stereo not given)
- IC50 [14]: 7.71 µM (active)
- IC50 [15]: 6.02 µM (active)

Compound: O=C(O)c1cc(-c2ccc(/C=N/NC(=S)Nc3ccccc3)o2)ccc1Cl
- IC50 (Fatty acid synthase [16]): 15.8 µM (active)
- IC50 [17]: 12.1 µM (active)
- IC50 (Fatty acid synthase [18]): 16.1 µM (active)
- IC50 (Aminopeptidase N): 31.2 µM (active)

Compound: COc1cccc(NC(=O)N(C)C[C@@H]2Oc3cc(C#Cc4ccc(F)cc4)ccc3S(=O)(=O)N([C@@H](C)CO)C[C@@H]2C)c1
- AC50 [8]: 1.22 µM (active)
- AC50 [9]: 1.04 µM (active)
- AC50 [10]: 1.18 µM (active)
- AC50 [11]: 2 µM (active)
- AC50 [13]: > 100 µM (inactive)

Compound: OC[C@@H]1[C@H](c2ccc(C3=CCCC3)cc2)[C@@H](CNC2CCCC2)N1CC1CC1
- AC50 [8]: 0.78 µM (active)
- AC50 [9]: 1.2 µM (active)
- AC50 [10]: 0.843 µM (active)
- AC50 [11]: 1.52 µM (active)
- AC50 [13]: 21.1 µM (active)

Compound: C[C@H](CO)N1C[C@H](C)[C@@H](CN(C)Cc2cccc(C(=O)Nc3ccccc3N)c2)OCc2ccccc2-c2c(n(C)c3ccccc23)C1=O
- AC50 [8]: 0.949 µM (active)
- AC50 [9]: 0.944 µM (active)
- AC50 [10]: 1.12 µM (active)
- AC50 [11]: 1.21 µM (active)
- AC50 [13]: 72.9 µM (active)

Compound: O=C(CN1CCCC1)Nc1ccc(-c2nc3cc(NC(=O)CN4CCCC4)ccc3o2)cc1
- AC50 [19]: 12.5 µM (active)
- EC50 (cells [20]): > 350 µM (not active)
- EC50 [5]: > 50 µM (active)
- EC50 (cells [21]): > 350 µM (not active)
